# “Also recorded” adds a separate entry of the source.
# T1: Upf1p-eRF3 interaction (Saccharomyces cerevisiae, UniProt P30771)
# T1 construct: FLAG (N); made in house; host or cells: GST-eRF3: E. coli BL21(DE3) pLysS with pGEX2T-SUP35
# T1 sequence (P30771 1-971): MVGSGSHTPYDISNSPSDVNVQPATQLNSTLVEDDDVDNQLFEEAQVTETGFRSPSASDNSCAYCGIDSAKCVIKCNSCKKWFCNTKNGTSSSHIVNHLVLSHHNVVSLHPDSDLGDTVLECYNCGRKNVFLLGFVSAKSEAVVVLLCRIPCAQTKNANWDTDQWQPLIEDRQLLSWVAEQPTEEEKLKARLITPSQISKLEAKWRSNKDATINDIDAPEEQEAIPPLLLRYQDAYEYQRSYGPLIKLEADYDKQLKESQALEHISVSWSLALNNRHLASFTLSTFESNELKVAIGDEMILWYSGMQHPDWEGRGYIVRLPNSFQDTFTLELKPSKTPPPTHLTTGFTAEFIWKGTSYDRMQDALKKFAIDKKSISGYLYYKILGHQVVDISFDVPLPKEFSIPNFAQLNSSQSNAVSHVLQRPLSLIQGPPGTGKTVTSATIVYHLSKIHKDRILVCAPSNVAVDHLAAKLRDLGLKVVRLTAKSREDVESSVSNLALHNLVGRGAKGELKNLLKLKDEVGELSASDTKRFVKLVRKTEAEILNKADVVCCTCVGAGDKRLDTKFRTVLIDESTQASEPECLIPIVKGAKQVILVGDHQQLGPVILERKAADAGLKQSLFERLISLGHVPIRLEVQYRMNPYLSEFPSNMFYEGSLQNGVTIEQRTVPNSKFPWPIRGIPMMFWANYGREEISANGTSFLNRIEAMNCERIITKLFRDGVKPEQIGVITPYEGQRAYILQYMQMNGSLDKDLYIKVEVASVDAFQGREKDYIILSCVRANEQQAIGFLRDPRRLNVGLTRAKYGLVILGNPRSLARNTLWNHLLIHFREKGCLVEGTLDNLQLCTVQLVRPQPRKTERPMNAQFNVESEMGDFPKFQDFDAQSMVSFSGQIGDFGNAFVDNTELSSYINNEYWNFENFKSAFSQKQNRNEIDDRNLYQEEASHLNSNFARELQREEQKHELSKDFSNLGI
# Experiments:
# [1] = biological target: T1, Upf1p-eRF3 interaction; experiment: GST-eRF3 pull-down of purified FLAG-Upf1p with immunoblotting; format: binding, yeast; conditions: 1 mM ATP, 1 mM GTP, or 100 μg/ml poly(U) RNA
# Procedure: (§1) FIGS. 1A-1B. The yeast Upf1 protein interacts specifically with the peptidyl release factors. (1A) GST-eRF1 or GST-eRF3 […] proteins bind specifically to Upf1p in a yeast extract. Cytoplasmic extracts from a yeast strain BJ3505 transformed with either pG-1 (vector) or pG-1FLAGUPF1 (Flag-Upf1p) were prepared in IBTB and incubated with 30 μl GST, GST-eRF1 or GST-eRF3 sepharose-protein complexes. The sepharose-protein complexes were washed 2 times in IBTB (see materials and methods), resuspended in SDS-PAGE loading buffer, separated on an 8% SDS-PAGE gel and immunoblotted using anti-FLAG antibody. (1B) Upf1p interacts directly with both eRF1 and eRF3. Upf1p was purified as described previously (Czaplinski et al. 1995). 200 ng of Upf1p was added to 10 μl of GST, GST-eRF1 or GST-eRF3 sepharose-protein complexes in a total reaction volume of 200 μl in IBTB supplemented with KCl to the final concentration indicated above each lane. After 1 hour at 4° C. sepharose-protein complexes were washed for 3 minutes with 1 ml of IBTB supplemented with KCl to the final concentration indicated above each lane. The purified sepharose-protein complexes were resuspended in SDS-PAGE loading buffer and separated on a 7.5% SDS-PAGE gel and immunoblotted as in (A).
# (§2) FIGS. 3A-3B. eRF3 and RNA compete for binding to Upf1p. (3A) Poly(U) RNA prevents Upf1p from binding to eRF3. Reaction mixtures were prepared as described in FIG. 1B, except that binding was performed in TBSTB (TBST with 100 μg/ml BSA) and reaction mixtures contained 1 mM ATP, 1 mM GTP, or 100 μg/ml poly(U) RNA as indicated above each lane. The reaction mixtures were mixed for 1 hour at 4° C. Following mixing, the complexes were washed as in FIG. 1B with TBSTB containing 1 mM ATP, 1 mM GTP, or 100 μg/ml poly(U) RNA as indicated above each lane. […]
# (§3) Further, purified Flag-Upf1p with poly(U) RNA was incubated in the presence or absence of ATP. Following incubation, GST-eRF3 was added to the reaction mixtures and the Upf1-eRF3 interaction was monitored by immunoblotting analysis as before.
# [2] = tested on: isogenic wild-type and upf3Δ strains; experiment: Paromomycin sensitivity, zone of growth inhibition around a disc on a lawn of cells; format: cell-based, Saccharomyces cerevisiae
# Procedure: FIG. 11. Paromomycin sensitivity was monitored in isogenic wild-type and upf3Δ strains by placing a disc containing 1 mg of paromomycin onto a lawn of cells and determining the zone of growth inhibition around the disc.
# Paromomycin sensitivity was monitored in isogenic wild-type and upf3Δ strains by placing a disc containing 1 mg of paromomycin onto a lawn of cells and determining the zone of growth inhibition around the disc (FIG. 11).
# [3] = tested on: −1 ribosomal frameshifting; experiment: β-galactosidase assay of −1 ribosomal frameshifting in the presence of paromomycin; format: cell-based, Saccharomyces cerevisiae
# Procedure: Cloning of UPF3: The strategy used to clone the UPF3 gene was the same that was used to clone UPF2 (Cui, Y, K. W. Hagan, S. Zhang, and Peltz, S. W. (1995)). […] Killer assays, frameshifting assays and extraction and analysis of total nucleic acids: The killer assay was carried out as previously described (Dinman, J. D., and Wickner, R. B. (1992)) by replica plating colonies onto 4.7 MB plates newly seeded with a lawn of 5×47 killer indicator cells (0.5 ml of a suspension at 1 unit of optical density at 550 nm per ml per plate). After 2 days at 20° C., killer activity was observed as a zone of growth inhibition around the killer colonies. To quantitate loss of killer activity, colonies that had been identified as killer^+ were re-streaked for single colonies and the percentage of killer^+ colonies were determined. The efficiencies of −1 frameshifting were determined as previously described (Cui, Y. Dinman, J. D., and Peltz, S. W. (1996); Dinman, J. D., Ruiz-Echevarria, M. J., Czaplinski, K. and Peltz, S. W. (1 997b)) using the 0-frame control (pTI25) and −1 reporter (pF8) plasmids. […]
# The effect of paromomycin on −1 ribosomal frameshifting was analyzed further by β-galactosidase assay using plasmids pF8 (−1 frameshift reporter construct) or pTI25 (zero frame control) in isogenic wild-type and upf3Δ strains. […]
# [4] = biological target: T2, Upf1p-eRF3 interaction (Saccharomyces cerevisiae, UniProt P30771, K436A); experiment: GST-eRF3 pull-down of purified FLAG-Upf1p with immunoblotting; format: binding, yeast; conditions: GST-eRF3
# T2 construct: FLAG (N); made in house; host or cells: GST-eRF3: E. coli BL21(DE3) pLysS with pGEX2T-SUP35
# Procedure: as §1, §2, §3
# [5] = biological target: T3, Upf1p-eRF1 interaction (Saccharomyces cerevisiae, UniProt P30771, K436A); experiment: GST-eRF1 pull-down of purified FLAG-Upf1p with immunoblotting; format: binding, yeast; conditions: GST-eRF1, various KCl concentrations
# T3 construct: FLAG (N); made in house; host or cells: GST-eRF1: E. coli BL21(DE3) pLysS with pGEX2T-SUP45
# Procedure: as §1, with “After 1 hour at 4° C. sepharose-protein complexes were washed for 3 minutes with 1 ml of IBTB supplemented with KCl to the final concentration indicated above each lane. The purified sepharose-protein complexes were resuspended in SDS-PAGE loading buffer and separated on a 7.5% SDS-PAGE gel and immunoblotted as in (A).” left out
# Previous results have shown that strains harboring mutations in the conserved lysine residue in position 436 of the Upf1p (K436) result in stabilization of nonsense-containing mRNAs and a nonsense suppression phenotype (Weng et al., 1996a). […] Reaction mixtures containing the K436A form of Upf1p, GST-eRF1 and various KCl concentrations were prepared,and their interaction was monitored as described above.
molecule,measurement,setting,value
Nc1nc2c(ncn2[C@@H]2O[C@H](COP(=O)(O)OP(=O)(O)OP(=O)(O)O)[C@@H](O)[C@H]2O)c(=O)[nH]1 [GTP],Effect on interaction between Upf1p and eRF3,[1],not affected
Nc1ncnc2c1ncn2[C@@H]1O[C@H](COP(=O)(O)OP(=O)(O)OP(=O)(O)O)[C@@H](O)[C@H]1O [ATP],Effect on interaction between Upf1p and eRF3,[1],did not affect the interaction; also recorded: did not prevent association of Upf1p with eRF3
NC[C@@H]1O[C@H](O[C@H]2[C@@H](O)[C@H](O[C@@H]3[C@@H](O)[C@H](N)C[C@H](N)[C@H]3O[C@H]3O[C@H](CO)[C@@H](O)[C@H](O)[C@H]3N)O[C@@H]2CO)[C@H](N)[C@@H](O)[C@@H]1O [paromomycin],Paromomycin sensitivity (hypersensitivity),[2]; upf1Δ or upf2Δ strains,Neither the upf1Δ or upf2Δ strains demonstrate hypersensitivity
same,Paromomycin sensitivity (zone of growth inhibition),"[2]; upf3Δ strain vs isogenic wild-type, disc containing 1 mg of paromomycin",more sensitive to paromomycin than the isogenic wild-type strain
same,β-galactosidase activity (−1 frameshift reporter),"[3]; upf3Δ cells carrying pF8, liquid media, different concentrations of the drug",increased continuously with increased concentrations of paromomycin
same,β-galactosidase activity,"[3]; wild-type cells containing pF8, or any strain carrying pTI25 (zero frame control)",unaffected
"Upf1K436A: purified K436A form of the Upf1p, mutation of the conserved lysine residue in position 436 (protein, UniProt P30771 1-971, looked up, variant K436A) ATP-dependent helicase NAM7: MVGSGSHTPYDISNSPSDVNVQPATQLNSTLVEDDDVDNQLFEEAQVTETGFRSPSASDNSCAYCGIDSAKCVIKCNSCKKWFCNTKNGTSSSHIVNHLVLSHHNVVSLHPDSDLGDTVLECYNCGRKNVFLLGFVSAKSEAVVVLLCRIPCAQTKNANWDTDQWQPLIEDRQLLSWVAEQPTEEEKLKARLITPSQISKLEAKWRSNKDATINDIDAPEEQEAIPPLLLRYQDAYEYQRSYGPLIKLEADYDKQLKESQALEHISVSWSLALNNRHLASFTLSTFESNELKVAIGDEMILWYSGMQHPDWEGRGYIVRLPNSFQDTFTLELKPSKTPPPTHLTTGFTAEFIWKGTSYDRMQDALKKFAIDKKSISGYLYYKILGHQVVDISFDVPLPKEFSIPNFAQLNSSQSNAVSHVLQRPLSLIQGPPGTGATVTSATIVYHLSKIHKDRILVCAPSNVAVDHLAAKLRDLGLKVVRLTAKSREDVESSVSNLALHNLVGRGAKGELKNLLKLKDEVGELSASDTKRFVKLVRKTEAEILNKADVVCCTCVGAGDKRLDTKFRTVLIDESTQASEPECLIPIVKGAKQVILVGDHQQLGPVILERKAADAGLKQSLFERLISLGHVPIRLEVQYRMNPYLSEFPSNMFYEGSLQNGVTIEQRTVPNSKFPWPIRGIPMMFWANYGREEISANGTSFLNRIEAMNCERIITKLFRDGVKPEQIGVITPYEGQRAYILQYMQMNGSLDKDLYIKVEVASVDAFQGREKDYIILSCVRANEQQAIGFLRDPRRLNVGLTRAKYGLVILGNPRSLARNTLWNHLLIHFREKGCLVEGTLDNLQLCTVQLVRPQPRKTERPMNAQFNVESEMGDFPKFQDFDAQSMVSFSGQIGDFGNAFVDNTELSSYINNEYWNFENFKSAFSQKQNRNEIDDRNLYQEEASHLNSNFARELQREEQKHELSKDFSNLGI",Interaction with eRF3 relative to wild-type Upf1p,[4],equivalent affinity as the wild-type Upf1p
same,Reduction of interaction with eRF1 relative to wild-type Upf1,[5],4 to 6 fold
